Laboratory results taken from patent US4150970A, “Growth regulator for plants” (Board of Trustees of Michigan State University, priority 1977, dated 1979).

Assays:
[1] = test system: oat first-internode; conditions: published reports; cited from earlier work
[2] = test system: plants; assay: Plant growth regulation (general statement); assay type: in vivo; conditions: analogous compounds
[3] = test system: tobacco callus; assay: Growth of tobacco callus, triacontanol and octocosanol (Example XIX, FIG. 6); assay type: cell-based, Nicotiana tabacum, var. Wisconsin 38; conditions: four concentrations, 10 days
Method: Cell cultures were separately grown in disposable petri dishes.
1. Haploid tobacco (Nicotiana tabacum, var. Wisconsin 38)
The cultures were grown on the basic medium of mineral salts described by Linsmaier and Skoog (Physiol. Plant, […] (1965)). Vitamins and hormones varied for each tissue (Table X-1) to maintain the tissues in an undifferentiated state. For all of the tissues inositol was 100 mg/liter and agar 1%. Sucrose was 3% for all but the bean which was 2%.
Callus was produced from pith for tobacco, potato and tomato. Bean callus was produced from hypocotyl sections and barley callus from immature ovarian tissue. Subcultures were maintained on the appropriate media.
Stock solutions of triacontanol were prepared at a concentration of 100 μg/ml. The solvent used was glass distilled benzene. The lower concentrations were obtained by serial dilutions. Treatments were applied to 4.5 cm Whatman #1 filter paper disks in 100 μl aliquots. Controls received 100 μl of glass distilled benzene. The solvent was evaporated for approximately 15 minutes and the filter papers were then placed on the agar medium.
Callus tissue was then broken into pieces of approximately the same size (10 mg) and placed in the petri dishes on the treated filter paper (one piece per dish). For experiments conducted in the light the intensity was approximately 2.0 microwatts/cm^2 -namometer. Fresh weight measurements were made after 12 days of growth.
A stock solution of octocosanol (CH3 (CH2)26 CH2 OH was prepared in the same manner as the triacontanol solutions above described.
The effect of four concentrations of triacontanol and octocosanol on tobacco callus was determined, using the materials and procedures above described in this Example. The dishes were tared and weighed at the end of 10 days. The results are illustrated in FIG. 6 of the drawings.

Q: Which “growth, oat first-internode method” value [1] does the source give for `CCCCCCCCCCCCCCCCCCCCCCO` [1-docosanol, reference compound] here?
A: increase growth

Q: With `CCCCCCCCCCCCCCCCCCCCCCCCCCCC(=O)O` [octocosanoic acid] as the molecule, how does the “effect as plant growth regulator” value [2] read?
A: ineffective

Q: For `CCCCCCCCCCCCCCCCCCCCCCCCCCCCO` [octocosanol, reference compound], which “growth over the control” value [3] is on record?
A: no effect on growth

Q: And the “effect as plant growth regulator” value [2]?
A: ineffective

Q: For `CCCCCCCCCCCCCCCCCCCCCCCCCCCCCC` [triacontane], which “effect as plant growth regulator” value [2] is on record?
A: ineffective
